Key:
Assay type in all cases: cell-based
ACHN = assay: NCI DTP human tumor cell line screen (SRB); conditions: Renal Cancer, 10 μM, 48 h
Method in brief: (§1)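 Percentage growth is calculated from three absorbances (time zero, untreated control, treated) in an SRB assay. Tumor cells receive 10 μM compound for 48 h at 37 °C; values below zero indicate net cell loss relative to Tz.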

786-0 = assay: NCI DTP human tumor cell line screen (SRB); conditions: Renal Cancer, 10 μM, 48 h
Method in brief: as §1

CAKI-1 = assay: NCI DTP human tumor cell line screen (SRB); conditions: Renal Cancer, 10 μM, 48 h
Method in brief: as §1

COLO 205 = assay: NCI DTP human tumor cell line screen (SRB); conditions: Colon Cancer, 10 μM, 48 h
Method in brief: as §1

SK-OV-3 = assay: NCI DTP human tumor cell line screen (SRB); conditions: Ovarian Cancer, 10 μM, 48 h
Method in brief: as §1

BT-549 = assay: NCI DTP human tumor cell line screen (SRB); conditions: Breast Cancer, 10 μM, 48 h
Method in brief: as §1

HOP-92 = assay: NCI DTP human tumor cell line screen (SRB); conditions: Non-Small Cell Lung Cancer, 10 μM, 48 h
Method in brief: as §1

MDA-MB-435 = assay: NCI DTP human tumor cell line screen (SRB); conditions: Breast Cancer, 10 μM, 48 h
Method in brief: as §1

HCT-116 = assay: NCI DTP human tumor cell line screen (SRB); conditions: Colon Cancer, 10 μM, 48 h
Method in brief: as §1

NCI/ADR-RES = assay: NCI DTP human tumor cell line screen (SRB); conditions: Breast Cancer, 10 μM, 48 h
Method in brief: as §1

KM12 = assay: NCI DTP human tumor cell line screen (SRB); conditions: Colon Cancer, 10 μM, 48 h
Method in brief: as §1

SN12C = assay: NCI DTP human tumor cell line screen (SRB); conditions: Renal Cancer, 10 μM, 48 h
Method in brief: as §1

SW-620 = assay: NCI DTP human tumor cell line screen (SRB); conditions: Colon Cancer, 10 μM, 48 h
Method in brief: as §1

SNB-75 = assay: NCI DTP human tumor cell line screen (SRB); conditions: CNS Cancer, 10 μM, 48 h
Method in brief: as §1

PC-3 = assay: NCI DTP human tumor cell line screen (SRB); conditions: Prostate Cancer, 10 μM, 48 h
Method in brief: as §1

SF-268 = assay: NCI DTP human tumor cell line screen (SRB); conditions: CNS Cancer, 10 μM, 48 h
Method in brief: as §1

SR = assay: NCI DTP human tumor cell line screen (SRB); conditions: Leukemia, 10 μM, 48 h
Method in brief: as §1

M14 = assay: NCI DTP human tumor cell line screen (SRB); conditions: Melanoma, 10 μM, 48 h
Method in brief: as §1

MOLT-4 = assay: NCI DTP human tumor cell line screen (SRB); conditions: Leukemia, 10 μM, 48 h
Method in brief: as §1

NCI-H322M = assay: NCI DTP human tumor cell line screen (SRB); conditions: Non-Small Cell Lung Cancer, 10 μM, 48 h
Method in brief: as §1

SF-539 = assay: NCI DTP human tumor cell line screen (SRB); conditions: CNS Cancer, 10 μM, 48 h
Method in brief: as §1

MALME-3M = assay: NCI DTP human tumor cell line screen (SRB); conditions: Melanoma, 10 μM, 48 h
Method in brief: as §1

[1] = test system: approximately 60 human tumor cell lines; assay: NCI DTP human tumor cell line screen, whole panel statistics; conditions: for inhibitory activities against cancer cells: DTP human tumor cell line screen, non-small cell lung, colon, breast, ovarian, leukemia, renal, melanoma, prostate, CNS cancer; for mean growth percent: mean over all cell lines tested; for mean growth percent / delta value (growth percent) / range (growth percent): 10 μM, 48 h; for delta value (growth percent) / range (growth percent): over all cell lines tested
Method: Representative compounds of the invention, prepared as described in EXAMPLES 1-6, were submitted to the Developmental Therapeutics Program of the United States National Cancer Institute (NCl) to screen for anti-cancer activity. The anti-cancer activities of the six compounds were tested against approximately 60 human tumor cell lines representing leukemia, melanoma, and cancers of the lung, colon, breast, ovary, kidney, prostate, and brain. The following screening methodology was provided by the NCl. […] For experimental screens, cells were inoculated into 96 well microtiter plates in 100 μL at plating densities ranging from 5,000 to 40,000 cells/well depending on the doubling time of individual cell lines. After cell inoculation, the microtiter plates were incubated at 37° C., 5% carbon dioxide, 95% air and 100% relative humidity for 24 hours prior to addition of the compounds. After 24 hours of incubation, two plates of each cell line were fixed in situ with trichloroacetic acid (TCA) to represent a measurement of the cell population for each cell line at the time of compound addition (Tz). The compounds were solubilized in dimethyl sulfoxide at 400-fold the desired final maximum test concentration and stored frozen prior to use. At the time of drug addition, frozen aliquots of the compounds thawed and diluted with complete medium containing 50 μg/ml gentamicin. Aliquots of 100 μl of these different compound dilutions were added to the appropriate microtiter wells already containing 100 μl of medium, resulting in the required final compound concentration of 10 μM. Following compound addition, the plates were incubated for an additional 48 h at 37° C., 5% carbon dioxide, 95% air, and 100% relative humidity. For adherent cells, the assay was terminated by the addition of cold TCA. Cells were fixed in situ by the gentle addition of 50 μl of cold 50% (w/v) TCA (final concentration, 10% TCA) and incubated for 60 minutes at 4° C. The supernatant was discarded, and the plates were washed five times with tap water and air dried. Sulforhodamine B (SRB) solution (100 μl) at 0.4% (w/v) in 1% acetic acid was added to each well, and plates were incubated for 10 minutes at room temperature. After staining, unbound dye was removed by washing five times with 1% acetic acid and the plates were air dried. Bound stain was subsequently solubilized with 10 mM trizma base, and the absorbance was read on an automated plate reader at a wavelength of 515 nm. For suspension cells, the methodology was the same except that the assay was terminated by fixing settled cells at the bottom of the wells by gently adding 50 μl of 80% TCA (final concentration, 16% TCA). Using the three absorbance measurements [time zero, (Tz), control growth, (C), and test growth in the presence of compound (Ti)], the percentage growth was calculated at each of the compound concentrations levels. Percentage growth inhibition was calculated with the following algorithms: [(Ti−Tz)/(C−Tz)]×100 for concentrations for which Ti>/=Tz [(Ti−Tz)/Tz]×100 for concentrations for which Ti<Tz The results of the NCl in vitro anticancer screening with six compounds against various human tumor cell lines are presented below in Tables 2-7. […] The growth percent mean, delta, and range for each compound are given below.

NCI-H522 = assay: NCI DTP human tumor cell line screen (SRB); conditions: Non-Small Cell Lung Cancer, 10 μM, 48 h
Method in brief: as §1

## CC1CCC2C(C)C(OCCn3cc(C(=O)NN=Cc4ccccc4O)nn3)OC3OC4(C)CCC1C32OO4 (stereo not drawn) [ART-Triazole-Sal, N′-(2-hydroxybenzylidene)-1-(dihydroxyartemisinin-ethyl)-1H-1,2,3-triazole-4-carbohydrazide]
ACHN
  Growth Percent: 15.69%
786-0
  Growth Percent: 1.80%
CAKI-1
  Growth Percent: 40.15%
COLO 205
  Growth Percent: 26.05%
SK-OV-3
  Growth Percent: 32.87%
BT-549
  Growth Percent: 40.56%
HOP-92
  Growth Percent: 44.42%
MDA-MB-435
  Growth Percent: 35.26%
HCT-116
  Growth Percent: 20.87%
NCI/ADR-RES
  Growth Percent: 15.88%
KM12
  Growth Percent: 29.83%
SN12C
  Growth Percent: 45.26%
SW-620
  Growth Percent: 31.03%
SNB-75
  Growth Percent: −8.40%
PC-3
  Growth Percent: 38.28%
SF-268
  Growth Percent: 21.15%
SR
  Growth Percent: 0.08%
M14
  Growth Percent: 3.07%
MOLT-4
  Growth Percent: −0.29%
NCI-H322M
  Growth Percent: 27.06%
SF-539
  Growth Percent: 14.19%
MALME-3M
  Growth Percent: 42.33%
[1]
  inhibitory activities against cancer cells: inhibitory activities against several types of cancer cells
  mean growth percent: 22.31%
  delta value (growth percent): 53.47
  range (growth percent): 83.7
[1]; summary text
  mean growth percent: 22.31%

## CC1CCC2C(C)C(OCc3ccc(C(=O)NN=Cc4ccccc4O)o3)OC3OC4(C)CCC1C32OO4 (stereo not drawn) [ART-Furan-Sal, N′-(2-hydroxybenzylidene)-5-(dihydroxyartemisinin-methyl)-furan-2-carbohydrazide]
ACHN
  Growth Percent: 7.80%
786-0
  Growth Percent: −22.22%
CAKI-1
  Growth Percent: 17.44%
COLO 205
  Growth Percent: 18.60%
SK-OV-3
  Growth Percent: 14.53%
BT-549
  Growth Percent: 22.47%
HOP-92
  Growth Percent: 37.02%
MDA-MB-435
  Growth Percent: 25.70%
HCT-116
  Growth Percent: 13.81%
NCI/ADR-RES
  Growth Percent: 11.14%
SN12C
  Growth Percent: 27.18%
SW-620
  Growth Percent: 13.95%
SNB-75
  Growth Percent: −17.31%
PC-3
  Growth Percent: 28.01%
SF-268
  Growth Percent: −0.43%
SR
  Growth Percent: −29.47%
M14
  Growth Percent: −48.54%
MOLT-4
  Growth Percent: −23.49%
SF-539
  Growth Percent: −11.48%
NCI-H522
  Growth Percent: −10.76%
[1]
  inhibitory activities against cancer cells: inhibitory activities against several types of cancer cells
  mean growth percent: 6.1%
  delta value (growth percent): 54.64
  range (growth percent): 89.31
[1]; summary text
  mean growth percent: 6.1%

## CC1CCC2C(C)C(OCc3ccc(C(=O)NN=Cc4ccccc4)cc3)OC3OC4(C)CCC1C32OO4 (stereo not drawn) [ART-Phe-Bz, N′-(benzylidene)-4-(dihydroxyartemisinin-methyl)-phenyl carbohydrazide]
ACHN
  Growth Percent: 16.91%
786-0
  Growth Percent: 26.79%
CAKI-1
  Growth Percent: 5.53%
COLO 205
  Growth Percent: 17.72%
SK-OV-3
  Growth Percent: 53.03%
BT-549
  Growth Percent: 14.60%
HOP-92
  Growth Percent: 2.94%
MDA-MB-435
  Growth Percent: 12.48%
HCT-116
  Growth Percent: 5.59%
NCI/ADR-RES
  Growth Percent: 19.93%
KM12
  Growth Percent: 10.19%
SN12C
  Growth Percent: 23.38%
SW-620
  Growth Percent: 19.48%
SNB-75
  Growth Percent: 0.39%
PC-3
  Growth Percent: 12.32%
SF-268
  Growth Percent: 35.30%
SR
  Growth Percent: −24.04%
M14
  Growth Percent: 34.29%
MOLT-4
  Growth Percent: −25.73%
NCI-H322M
  Growth Percent: 53.20%
SF-539
  Growth Percent: 25.70%
MALME-3M
  Growth Percent: 32.27%
NCI-H522
  Growth Percent: −9.33%
[1]
  mean growth percent: 17.28%
  delta value (growth percent): 66.68
  range (growth percent): 102.60

## CC1CCC2C(C)C(OCc3ccc(C(=O)NN=Cc4ccccc4O)cc3)OC3OC4(C)CCC1C32OO4 (stereo not drawn) [ART-Phe-Sal, N′-(2-hydroxybenzylidene)-4-(dihydroxyartemisinin-methyl)-phenyl carbohydrazide]
ACHN
  Growth Percent: 10.40%
786-0
  Growth Percent: −12.09%
CAKI-1
  Growth Percent: 11.04%
COLO 205
  Growth Percent: 26.59%
SK-OV-3
  Growth Percent: 17.00%
BT-549
  Growth Percent: 25.29%
HOP-92
  Growth Percent: 56.27%
MDA-MB-435
  Growth Percent: 15.04%
HCT-116
  Growth Percent: 13.24%
NCI/ADR-RES
  Growth Percent: 21.55%
KM12
  Growth Percent: 23.72%
SN12C
  Growth Percent: 25.25%
SW-620
  Growth Percent: 30.24%
SNB-75
  Growth Percent: −16.75%
PC-3
  Growth Percent: 31.46%
SF-268
  Growth Percent: 10.84%
SR
  Growth Percent: −44.93%
M14
  Growth Percent: −37.45%
MOLT-4
  Growth Percent: −30.65%
NCI-H322M
  Growth Percent: 23.76%
SF-539
  Growth Percent: −18.69%
MALME-3M
  Growth Percent: 16.70%
NCI-H522
  Growth Percent: 5.74%
[1]
  inhibitory activities against cancer cells: inhibitory activities against several types of cancer cells
  mean growth percent: 10.55%
  delta value (growth percent): 67.26
  range (growth percent): 112.98

— patent publication US7692030B2, “Conjugates of artemisinin-related endoperoxides and hydrazone derivatives for the treatment of cancer” (University of Washington, priority 2006, dated 2010)
